Measurements published in the NIST ThermoML archive (doi:10.1016/j.jct.2011.11.019).
± gives the expanded uncertainty stated by the source.

Assay: xn = mol fraction of the nth substance listed
Conditions: 298.15 K, 101 kPa, Liquid, Vibrating tube method

OC(C(F)(F)F)C(F)(F)F [1,1,1,3,3,3-hexafluoro-2-propanol] + O
Conditions	mass density [kg/m3]
x1 = 0.1024	1261.96 ± 0.3
x1 = 0.205	1387.36 ± 0.31
x1 = 0.3016	1455.74 ± 0.32
x1 = 0.4067	1501.77 ± 0.36
x1 = 0.4929	1527.75 ± 0.41
x1 = 0.5943	1550.19 ± 0.47
x1 = 0.6411	1558.59 ± 0.5
x1 = 0.8065	1585.8 ± 0.62
x1 = 0.9005	1593.04 ± 0.69
